This experiment concerns the target T1, Insulin-Degrading Enzyme (IDE) (Homo sapiens, UniProt P14735).
T1 sequence (P14735 42-1019): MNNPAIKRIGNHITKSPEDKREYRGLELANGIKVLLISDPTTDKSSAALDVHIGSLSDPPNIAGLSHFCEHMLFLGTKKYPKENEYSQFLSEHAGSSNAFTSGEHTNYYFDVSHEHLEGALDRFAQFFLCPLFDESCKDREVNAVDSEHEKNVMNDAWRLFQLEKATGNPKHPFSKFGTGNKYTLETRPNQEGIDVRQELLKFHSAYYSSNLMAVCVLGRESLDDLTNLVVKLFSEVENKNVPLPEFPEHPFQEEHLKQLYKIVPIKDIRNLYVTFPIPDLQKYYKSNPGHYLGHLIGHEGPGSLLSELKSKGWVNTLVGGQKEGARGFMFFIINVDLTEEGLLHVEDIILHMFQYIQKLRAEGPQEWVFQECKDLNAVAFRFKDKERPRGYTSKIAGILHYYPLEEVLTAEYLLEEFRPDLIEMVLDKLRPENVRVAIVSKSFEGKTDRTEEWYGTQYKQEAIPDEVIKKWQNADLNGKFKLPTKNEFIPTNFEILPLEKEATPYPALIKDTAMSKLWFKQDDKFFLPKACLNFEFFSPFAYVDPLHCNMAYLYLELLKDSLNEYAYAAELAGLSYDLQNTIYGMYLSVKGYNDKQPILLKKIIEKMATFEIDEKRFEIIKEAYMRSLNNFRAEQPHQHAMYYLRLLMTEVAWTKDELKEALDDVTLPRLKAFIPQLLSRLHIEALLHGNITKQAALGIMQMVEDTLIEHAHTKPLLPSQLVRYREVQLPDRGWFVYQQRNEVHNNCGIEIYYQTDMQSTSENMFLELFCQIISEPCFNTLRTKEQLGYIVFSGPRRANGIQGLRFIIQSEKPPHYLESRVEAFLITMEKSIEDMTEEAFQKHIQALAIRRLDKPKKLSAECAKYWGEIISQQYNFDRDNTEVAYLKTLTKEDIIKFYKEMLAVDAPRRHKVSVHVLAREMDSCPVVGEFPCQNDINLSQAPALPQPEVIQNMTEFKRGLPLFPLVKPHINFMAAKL
In words: fluorogenic peptide hydrolysis by purified IDE, two-site kinetic fit; LC-MS of insulin hydrolysis (about […] decrease). The format is biochemical.

Consider `CC(C)C[C@H](NC(=O)[C@H](CCc1ccccc1)NC(=O)CN1CCOCC1)C(=O)N[C@@H](Cc1ccccc1)C(=O)N[C@@H](CC(C)C)C(=O)[C@@]1(C)CO1` [CFZ, Carfilzomib], for which the Kd (commonly the concentration at which binding is half-saturated) was determined as 130 nM.

The values are drawn from publication PMC8869475 (Biomolecules, 2022).
